# Laboratory results as given in the supplement of paper PMC10307832.
# Assays:
# Assay in all cases: relative viability (nuclei count vs DMSO), 5 days (fraction); higher = more cells survive
# [1] = compound: CCC1=CN=CN=C1N2CCN(CC2)CC3=NC4=C(N3)C=C(C=C4)C(F)(F)F + CS(=O)(=O)N1CCN(Cc2cc3nc(-c4cccc5[nH]ncc45)nc(N4CCOCC4)c3s2)CC1 [Pictilisib] (partner 1 µM)
# How it was run: (§1)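 Lung cancer cell lines were seeded in 1536-well plates and dosed by pin tool the next day, with either a single drug or a fixed anchor-drug dose combined with five library-drug doses (not always all listed) spaced in √10 steps. Five days later, one step fixed the cells and stained their nuclei (final 0.05% Triton X-100, 1% formaldehyde, 1 ug/ml Hoechst), and nuclei were counted on 4× images. Relative viability is the nuclei count in treated wells divided by the count in vehicle wells, and each value is the median of duplicate plates.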
# [2] = compound: CCC1=CN=CN=C1N2CCN(CC2)CC3=NC4=C(N3)C=C(C=C4)C(F)(F)F + CC(=O)c1c(C)c2cnc(Nc3ccc(N4CCNCC4)cn3)nc2n(C2CCCC2)c1=O [Palbociclib] (partner 0.5 µM)
# How it was run: as §1
# [3] = compound: N=C1NC(=O)/C(=C/c2ccc(O)cc2)S1 [Mirin] + C[C@]1(O)C[C@@H](c2nc(-c3ccc4ccc(-c5ccccc5)nc4c3)c3c(N)nccn32)C1 [Linsitinib] (partner 1 µM)
# How it was run: as §1
# [4] = compound: N=C1NC(=O)/C(=C/c2ccc(O)cc2)S1 [Mirin] + CC1(C)CCC(c2ccc(Cl)cc2)=C(CN2CCN(c3ccc(C(=O)NS(=O)(=O)c4ccc(N[C@H](CCN5CCOCC5)CSc5ccccc5)c(S(=O)(=O)C(F)(F)F)c4)cc3)CC2)C1 [Navitoclax] (partner 0.5 µM)
# How it was run: as §1
Cell Line,relative viability ([1]; first compound 0.04 µM),relative viability ([1]; first compound 0.1265 µM),relative viability ([1]; first compound 0.4 µM),relative viability ([1]; first compound 1.265 µM),relative viability ([1]; first compound 4 µM),relative viability ([2]; first compound 0.04 µM),relative viability ([2]; first compound 0.1265 µM),relative viability ([2]; first compound 0.4 µM),relative viability ([2]; first compound 1.265 µM),relative viability ([2]; first compound 4 µM),relative viability ([3]; first compound 0.25 µM),relative viability ([3]; first compound 0.7906 µM),relative viability ([3]; first compound 2.5 µM),relative viability ([3]; first compound 7.906 µM),relative viability ([3]; first compound 25 µM),relative viability ([4]; first compound 0.25 µM),relative viability ([4]; first compound 0.7906 µM),relative viability ([4]; first compound 2.5 µM),relative viability ([4]; first compound 7.906 µM),relative viability ([4]; first compound 25 µM)
NCI-H2126,0.518,0.496,0.493,0.442,0.496,0.365,0.333,0.376,0.354,0.369,0.713,0.707,0.756,0.639,0.698,0.811,0.81,0.819,0.852,0.85
LC-2-ad,0.459,0.512,0.424,0.328,0.326,0.471,0.48,0.501,0.466,0.472,0.816,1.03,0.937,0.833,0.732,0.452,0.673,0.466,0.36,0.401
RERF-LC-KJ,0.558,0.498,0.487,0.444,0.505,1.05,1.06,1.02,0.971,0.923,0.962,0.908,0.88,0.896,0.913,0.979,0.862,0.989,1.08,1.1
EBC-1,0.459,0.318,0.333,0.261,0.352,,,,,,1.06,1.07,0.872,0.875,0.974,0.419,0.479,0.456,0.368,0.144
HCC-15,0.667,0.676,0.677,0.532,0.805,0.717,0.723,0.646,0.612,0.682,0.791,0.849,0.897,0.779,0.534,0.755,0.689,0.762,0.713,0.52
NCI-H1563,0.643,0.684,0.65,0.616,0.698,,,,,,1.16,1.32,1.19,1.18,1.19,,,,,
COR-L 105,0.372,0.376,0.385,0.247,0.464,0.416,0.444,0.371,0.363,0.428,0.984,1.02,1.13,1.09,0.846,1.02,0.817,0.884,0.703,0.719
NCI-H596,0.399,0.366,0.396,0.327,0.413,,,,,,0.975,0.919,1.03,1.11,0.902,0.966,0.855,0.96,1.15,0.962
LU99A,0.369,0.287,0.363,0.346,0.321,0.428,0.431,0.378,0.439,0.435,0.515,0.472,0.508,0.46,0.421,0.706,0.677,0.92,0.742,0.542
